Data published in patent US9834549B2, “3,3-disubstituted-(8-aza-bicyclo[3.2.1]OCT-8-yl)-[5-(1H-pyrazol-4-yl)-thiophen-3-yl]-methanones as inhibitors of 11 (β)-HSD1” (The University Of Edinburgh, priority 2010, dated 2017).
Like-named read-outs stand apart in the source and are kept apart here.

Key:
human 11β-HSD1 = biological target: T1, human 11β-HSD1 (Homo sapiens, UniProt P28845); test: Cellular in vitro 11β-HSD1 enzyme inhibition assay (SPA, HEK293/11β-HSD1 cells); assay type: cell-based
T1 construct: stably transfected with a construct containing the full-length gene coding for the human 11β-HSD1 enzyme; expressed in transfected cells; host or cells: HEK293 (stably transfected, HEK293/11β-HSD1)
Procedure: Compounds were assessed by a Scintillation Proximity Assay (SPA) performed according to the following protocol:
HEK293 cells were stably transfected with a construct containing the full-length gene coding for the human 11β-HSD1 enzyme to create HEK293/11β-HSD1 cells. Cells were routinely cultured in DMEM containing 10% calf foetal serum, 1% glutamine, and 1% penicillin and streptomycin. Prior to assay, cells were plated at 2×10^4 cells/well in 96-well poly-D-Lys coated flat-bottomed microplates and incubated in 5% CO2, 95% O2 at 37° C. for 24 hours. The media in each well was removed immediately before assay.
Compounds to be tested were dissolved in DMSO at 10 mM and serially diluted into water containing 10% DMSO. Diluted compounds at a volume of 10 μL were added to wells of a 96-well V-bottomed microplate. A solution of DMEM, 1% glutamine, 1% penicillin and streptomycin, and 22 nM tritiated cortisone was prepared and 90 μL added to each well of the assay plate. This solution (100 μL/well) was transferred to the plate containing the cells. The plate was then incubated in 5% CO2, 95% O2 at 37° C. for 2 hours.
Following this incubation, 50 μL of the assay solution was transferred to each well of a 96-well scintillation microplate. A mixture consisting of anti-mouse YSi SPA beads, pre-mixed with anti-cortisol antibody in assay buffer (50 mM Tris.HCl, pH 7.0; 300 mM NaCl; 1 mM EDTA, 5% glycerol) was prepared and 50 μL added to each well of the scintillation microplate. An adhesive strip was applied to the microplate and the plate gently shaken for at least 2 hours at room temperature, and then spun briefly on a low speed centrifuge. The plate was read on a scintillation counter suitable for 96-well microplates. For the calculation of percentage inhibition, a series of wells were added to the plate that represented the assay maximum and the assay minimum: one set that contained substrate without cells (minimum) and another set that contained substrate and cells without any compound (maximum).
The calculation of median inhibitory concentration (IC50) values for the compounds was performed using GraphPad Prism® software. Dose-response curves for each compound were plotted as fractional inhibition and data fitted to the four parameter logistic equation.

human 11β-HSD2 = biological target: T2, human 11β-HSD2 (Homo sapiens, UniProt P80365); test: Cellular in vitro 11β-HSD2 enzyme inhibition assay (CHO cells); assay type: cell-based; settings: CHO cells transfected with human 11β-HSD2
T2 construct: CHO cells stably transfected with the full-length gene coding for human 11β-HSD2 were used; expressed in transfected cells; host or cells: CHO (stably transfected)
T2 sequence (P80365 1-405): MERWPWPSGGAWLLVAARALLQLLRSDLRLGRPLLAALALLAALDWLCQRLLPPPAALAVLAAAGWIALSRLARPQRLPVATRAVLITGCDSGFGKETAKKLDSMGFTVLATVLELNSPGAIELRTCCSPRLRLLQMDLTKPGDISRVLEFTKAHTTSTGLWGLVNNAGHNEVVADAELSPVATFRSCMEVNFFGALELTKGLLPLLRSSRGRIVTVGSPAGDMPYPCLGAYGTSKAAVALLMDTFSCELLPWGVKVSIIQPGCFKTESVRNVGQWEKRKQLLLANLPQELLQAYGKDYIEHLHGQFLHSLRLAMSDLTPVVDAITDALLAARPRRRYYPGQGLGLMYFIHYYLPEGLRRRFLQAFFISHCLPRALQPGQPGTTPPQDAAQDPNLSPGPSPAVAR
Procedure: For measurement of inhibition of 11β-HSD2, CHO cells stably transfected with the full-length gene coding for human 11β-HSD2 were used. Assays were carried out in 96-well microplates containing 1×10^5 cells/well. Controls and compounds were plated as above, so that the final DMSO concentration in each well was 1%. To initiate the assay, 90 μL of a solution of HAMS F-12 medium containing 1% glutamine, 1% penicillin and streptomycin, and 22 nM tritiated cortisol was added to each well of the assay plate. The plate was then incubated in 5% CO2, 95% O2 at 37° C. for 16 hours.
The assay solutions were transferred to glass tubes and […] added to each tube. Each tube was vortexed thoroughly and the upper layer containing the tritiated steroid transferred to a fresh glass tube. The solvent was evaporated by placing the tubes in a heating block at 65° C. under a stream of nitrogen gas. 20 μL ethanol was added to each of the dried samples and vortexed briefly. Each sample was applied to a silica TLC plate and the plate dried. The plate was placed vertically in a glass tank containing 92% chloroform: 8% ethanol and the solvent allowed to rise up the plate. The plate was dried, placed in an imaging cassette, and overlayed with a tritium imaging plate for 1-2 days. The amount of enzyme inhibition in each sample was determined by measuring the intensity of the substrate and product spots using a phospho-imager. IC50 values for inhibitors were determined as described above for 11β-HSD1.

[1] = Oral exposure and tissue distribution in rats; assay type: in vivo, male Sprague Dawley rats; settings: rat, oral 10 mg/kg; for Cmax: male, Sprague Dawley, plasma, read-out: Plasma Cmax (maximum plasma concentration)
Procedure: The circulating plasma levels and tissue distribution of certain compounds were determined following oral administration of compound (10 mg/kg) to male Sprague Dawley rats. Rats (n=3 per group) were culled at 1, 4 and 6 hours post dosing and trunk blood and tissues (liver, adipose and brain) excised. Blood samples at 30 minutes and 2 hours post dosing were taken by tail nick from the 4 hour and 6 hour rats respectively.
Compound was triple extracted from plasma (prepared from blood by a high speed centrifugation step) spiked with 1 μg of a standard compound using ethyl acetate. Extracts were dried under nitrogen and re-suspended in 60% methanol/40% ammonium acetate (5 mM).
A known weight of tissue was homogenized in 3 volumes Krebs buffer. Compound was triple extracted with ethyl acetate from the supernatant of a low speed spin spiked with 1 μg of a standard compound. Extracts were dried under nitrogen and re-suspended in 60% methanol/40% ammonium acetate (5 mM).
(§1) Samples from plasma and tissue were analyzed by TSQ Quantum Discovery Tandem Mass Spectrometer and Surveyor Liquid Chromatogram (Thermo, Hemel-Hempstead, UK). 10 μL of each sample was injected in a mobile phase consisting of 60%:40% methanol:5 mM ammonium acetate at a flow rate of 0.5 mL/minute. The column used was a BDS hypersil, C18, 50×2.1 mm with a 5 μm particle size.
(§2) Each compound was tuned with a spray voltage of 3000 V and a capillary temperature of 300° C. and values for tube lens, CID and product ions were determined.
The peak area for each compound and for the internal standard was determined and the concentration of compound per gram of tissue or mL of plasma was calculated by comparison of the peak area ratio to a standard curve.

[2] = In vitro human liver microsomal stability assay; assay type: in vitro ADME; settings: human liver microsomes
Procedure: To predict in vivo metabolism of compounds, the stability of compounds incubated with human liver microsomes in vitro was determined. Human liver microsome preparations were stored at −80° C. and thawed on ice prior to use. The thawed microsomes were diluted to a concentration of 2 mg/mL in 50 mM sodium phosphate, pH 7.4. Reference and test compounds were prepared as 10 mM stocks in 100% DMSO and diluted to 1 mM in acetonitrile before use. Each compound was tested in triplicate as follows:
4 μL of test or reference compound was added to a well of a 24-well microplate and 0.5 mL of 4 mM NADPH added. The plate was then transferred to a shaker for 10 minutes at room temperature. 30 μL of the compound/NADPH solution was transferred to the well of a 96-well microplate and incubated at 37° C. for 5 minutes. 30 μL of human liver microsomes (pre-incubated at 37° C. for 5 minutes) was added to the well containing the compound/NADPH solution and the plate incubated for the selected period of time (typically 0 or 30 minutes). The reaction was stopped by adding 60 μL of ice cold […] trichloroacetic acid. The plate was centrifuged at 1000 rpm for 5 minutes at room temperature and the supernatant transferred to the well of a new 96-well V-bottomed microplate for mass spectrometric analysis.
as §1, with “Samples” for “Samples from plasma and tissue”
as §2
The peak area for each compound was measured in triplicate for the 0 and 30 minute samples and the average of each was reported. The percentage remaining after 30 minutes was calculated as the average peak area of the sample after 30 minutes divided by the average peak area at 0 minutes. The RSD was 10% or lower for each compound.

[3] = HEK293, potency groups, read-out: IC50 for 11β-HSD1 (HEK293)
[4] = HEK293 cells transfected with human 11β-HSD1, first value in cell, read-out: IC50 for 11β-HSD1 (HEK293)
[5] = HEK293 cells, value marked * in brackets, read-out: IC50 for 11β-HSD1 (HEK293), (*) average of at least two individual experiments

T1 sequence (P28845 whole entry): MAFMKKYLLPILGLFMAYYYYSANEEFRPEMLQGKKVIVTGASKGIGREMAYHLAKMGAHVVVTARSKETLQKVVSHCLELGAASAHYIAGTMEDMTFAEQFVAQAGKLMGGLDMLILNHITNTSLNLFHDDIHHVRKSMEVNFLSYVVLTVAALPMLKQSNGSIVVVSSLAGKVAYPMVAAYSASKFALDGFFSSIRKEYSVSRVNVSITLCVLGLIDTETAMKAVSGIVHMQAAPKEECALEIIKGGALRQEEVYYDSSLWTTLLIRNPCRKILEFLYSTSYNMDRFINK

| Structure (SMILES) | IC50 (human 11β-HSD1; [3]) | IC50 (human 11β-HSD1; [4]) | IC50 (human 11β-HSD1; [5]) | IC50 (human 11β-HSD2) | Cmax [1] | Liver Cmax (maximum liver concentration) [1] | % Parent Remaining at 30 min [2] |
| --- | --- | --- | --- | --- | --- | --- | --- |
| O=C(c1csc(-c2cn[nH]c2)c1)N1C2CCC1CC(O)(c1ccccn1)C2 (stereo not shown) [XX-01] | ≤ 100 nM | 21 nM | 28 nM | > 10000 nM | > 1000 ng/mL | ++ (3001-5000 ++) | +++ (61-100% +++) |
| O=C(c1csc(-c2cn[nH]c2)c1)N1C2CCC1CC(F)(c1ncccc1Cl)C2 (stereo not shown) [XX-13, [3-(3-Chloro-pyridin-2-yl)-3-fluoro-8-aza-bicyclo[3.2.1]oct-8-yl]-[5-(1H-pyrazol-4-yl)-thiophen-3-yl]-methanone] | ≤ 100 nM | 31 nM |  | > 10000 nM |  |  | ++ (31-60% ++) |
| N#CC1(c2ccccn2)CC2CCC(C1)N2C(=O)c1csc(-c2cn[nH]c2)c1 (stereo not shown) [XX-18] | ≤ 100 nM | 15 nM |  | > 10000 nM |  |  | +++ (61-100% +++) |
| O=C(c1csc(-c2cn[nH]c2)c1)N1C2CCC1CC(O)(c1cnccn1)C2 (stereo not shown) [XX-24] | ≤ 100 nM | 37 nM |  | > 10000 nM | 501 to 1000 ng/mL | ++ (3001-5000 ++) |  |
| O=C(c1csc(-c2cn[nH]c2)c1)N1C2CCC1CC(O)(c1cscn1)C2 (stereo not shown) [XX-36] | ≤ 100 nM |  |  |  | > 1000 ng/mL | ++ (3001-5000 ++) | +++ (61-100% +++) |
| O=C(c1csc(-c2cn[nH]c2)c1)N1C2CCC1CC(F)(c1cccnn1)C2 (stereo not shown) [XX-43] | ≤ 100 nM | 47 nM | 50 nM | > 10000 nM |  |  | +++ (61-100% +++) |
| O=C(c1csc(-c2cn[nH]c2)c1)N1CCC(O)(c2ncccc2Cl)CC1 [YY-02] | ≤ 100 nM | 49 nM | 41 nM | > 10000 nM | > 1000 ng/mL | +++ (>5001 +++) | ++ (31-60% ++) |
| O=C(c1csc(-c2cn[nH]c2)c1)N1CCC(O)(c2ccncc2Cl)CC1 [YY-06] | ≤ 100 nM | 28 nM |  | > 10000 nM |  |  | ++ (31-60% ++) |
